In series [1] the test system is LDL. Conditions: cited from earlier work.
The test system of another series is serum lipoproteins. Kind of series: Action on serum lipoproteins and other metabolic parameters of male rats in the subchronic test. Type of series: in vivo. Conditions: rat. Here is the method: 3) Action on serum lipoproteins and other metabolic parameters of male rats in the subchronic test
Groups of male rats of the strain HOE: WISKf (SPF 71) having a starting weight of above 180 g received the test preparations daily in the morning (sodium salts of the dihydroxycarboxylic acids of the formula II) in polyethylene glycol 400 by stomach tube; the respective control group received only the vehicle. The last (7th) administration was carried out 24 hours before taking blood and sacrificing. There was free access to food and water during the experiment. 24 hours before taking blood, which wall carried out retroorbitally under slight ether anesthesia before and after the treatment period (i.e. on the 1st and 8th day), the food was withdrawn. Total cholesterol was determined in the serum of each individual animal [CHODPAP high performance method of Boehringer Mannheim], and, as a measure of the triglycerides, total glycerol was also determined analytically from the serum pool of all the animals of one group [GPO-PAP high performance method, Boehringer Mannheim].
Immediately after taking blood, the animals were sacrificed by dislocation of the spine, and the relative liver weight, the change in body weight and the food consumption were determined.
For the analysis of the serum lipoproteins, the serum of all the rats of one group was pooled. The serum lipoproteins were separated using the preparative ultracentrifuge.
The following conditions were used for the separation of the fractions VLDL, LDL and HDL:
The determination of the protein was carried out by the method of Lowry et al. [LOWRY O. H., ROSEBOROUGH, N.J., PARR, A. L. and RANDELL, R. J.: J. Biol. Chem. 193, 265 (1951)].

Series [2] relates to LDL. Briefly: Inhibition of Cu2+-catalyzed LDL oxidation in vitro. Format: biochemical, porcine. The settings on record: 5 μM Cu2+, 2 hours at 37° C., fluorescence 430 nm; read-out: IC50 (50% inhibition of LDL oxidation). Here is the method: 6) Inhibition of Cu^2+ -catalyzed LDL oxidation in vitro LDL was isolated from porcine plasma which contained EDTA (1 mg/ml) by ultracentrifugation in salt solutions of NaCl/NaBr between the densities 1.019 and 1.063 g/ml (cf. R. J. Havel et al., J. Clin. Invest. 43, 1345 (1955)). LDL was then dialyzed against phosphate-buffered saline (160 mM NaCl, 10 mM NaH2 PO4), pH 7.4 and stored under nitrogen at 4° C. Before the oxidation process, the LDL fractions were diluted to a final protein concentration of 0.1 mg/ml using phosphate-buffered saline and 2.5 ml aliquot parts were pre-incubated under nitrogen with the test compounds (25 μl of ethanolic solution) for 1 hour at 37° C. (cf. McLean et al., Biochemistry 1989, 28, 321). For the Cu^2+ -catalyzed oxidation of LDL, 12.5 μl of a 1 mM CuSO4 solution were added to each sample, a 5 μM Cu^2+ concentration resulting. The incubation was carried out for 2 hours at 37° C. and in an air atmosphere. The fluorescence intensity was measured at 430 nm (excitation wavelength 365 nm) (cf. Steinbrecher, U. P., J. Biol. Chem. 1987, 262, 3603). […] In addition, the inhibition using a 10^-5 N concentration of the test compound is indicated in %.

Setting [3] is: 30 mg/kg daily by stomach tube, 7 administrations.

pIC50: −log10 of the molar value.

On to `CC(C)(Sc1cc(C(C)(C)C)c(O)c(C(C)(C)C)c1)Sc1cc(C(C)(C)C)c(O)c(C(C)(C)C)c1` [probucol, reference compound], for which the “oxidative modification of LDL in vivo” value with LDL [1] was “prevents oxidative modification of LDL”. In addition, in the series on LDL [1] (in vivo), the biliary cholesterol excretion result is “increases biliary cholesterol excretion”; the “lowering of LDL and HDL” value was “lowers both LDL and HDL”; the “plasma cholesterol-lowering action compared with a potent cholesterol biosynthesis inhibitor (such as mevinolin)” value was “only poorly pronounced”; the “rate of catabolism of LDL” value is “increases the rate of catabolism of LDL”. Moreover, in the series on serum lipoproteins (setting [3]), the “Body weight, % changes in the mean value relative to starting” value is “+5%”; the “Glycerol VLDL, % change compared to control” value is listed as “+24%”; the “Liver weight, % changes in the mean value relative to control” value was “+5%”; the “Protein LDL, % change compared to control” value is reported as -23%. In addition, in the series with serum lipoproteins (setting [3]), the “Protein VLDL, % change compared to control” value is listed as -6%; the “Total cholesterol HDL, % change compared to control” value is given as -11%; the “Total cholesterol LDL, % change compared to control” value was -24%; the “Total cholesterol VLDL, % change compared to control” value is recorded as “+4%”. For the same compound, the “Cholesterol HDL/LDL” value in the series with serum lipoproteins (30 mg/kg daily, control standardization to 1.00) came out at 0.97. Also, the negative logarithm of the IC50 (pIC50) in the series with LDL [2] is 6.30.
